Assay results published in PubChem BioAssay (NCI).
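48-hour exposure; five concentrations; linearly interpolated endpoints. At the TGI there is no net growth.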

How the values were obtained:
Experiment in all cases: NCI tumour cell line growth inhibition, 48 h
[1] = tested on: HT29 colon
[2] = tested on: SK-MEL-2 melanoma
[3] = tested on: MALME-3M melanoma
[4] = tested on: IGROV1 ovarian
[5] = tested on: COLO 205 colon
[6] = tested on: SNB-75 CNS
[7] = tested on: OVCAR-8 ovarian
[8] = tested on: EKVX NSCLC
[9] = tested on: UO-31 renal
[10] = tested on: DMS 273 small cell lung
[11] = tested on: A498 renal
[12] = tested on: SK-OV-3 ovarian
[13] = tested on: HL-60(TB) leukemia
[14] = tested on: A549 NSCLC
[15] = tested on: OVCAR-4 ovarian
[16] = tested on: NCI-H460 lung
[17] = tested on: MCF7 breast
[18] = tested on: P388 leukemia
[19] = tested on: RPMI-8226 leukemia
[20] = tested on: HOP-18 NSCLC
[21] = tested on: MOLT-4 leukemia
[22] = tested on: HCC-2998 colon
[23] = tested on: DLD-1 colon
[24] = tested on: SF-268 CNS
[25] = tested on: UACC-257 melanoma
[26] = tested on: CCRF-CEM leukemia
[27] = tested on: OVCAR-5 ovarian
[28] = tested on: NCI/ADR-RES ovarian
[29] = tested on: SN12C renal
[30] = tested on: KM20L2 colon
[31] = tested on: SNB-19 CNS
[32] = tested on: DMS 114 small cell lung
[33] = tested on: CAKI-1 renal
[34] = tested on: OVCAR-3 ovarian
[35] = tested on: SF-539 CNS
[36] = tested on: XF 498 CNS
[37] = tested on: U251 CNS
[38] = tested on: RXF 393 renal
[39] = tested on: SN12K1 renal
[40] = tested on: SF-295 CNS
[41] = tested on: SW-620 colon
[42] = tested on: HCT-15 colon
[43] = tested on: UACC-62 melanoma
[44] = tested on: HCT-116 colon
[45] = tested on: KM12 colon
[46] = tested on: NCI-H23 lung
[47] = tested on: NCI-H522 lung
[48] = tested on: HOP-92 NSCLC
[49] = tested on: LOX IMVI melanoma
[50] = tested on: SK-MEL-28 melanoma
[51] = tested on: NCI-H226 lung
[52] = tested on: HOP-62 NSCLC
[53] = tested on: SK-MEL-5 melanoma
[54] = tested on: K-562 leukemia
[55] = tested on: SNB-78 CNS

Q: How did the TGI [1] turn out when `C=CCc1cccc(/C=N\N=C(/N)NO)c1O` was run?
A: Its TGI is over 58.5 µM.

Q: And the TGI [2]?
A: The TGI was over 54.4 µM.

Q: What about the TGI [3] of the same compound?
A: The TGI was 70.9 µM.

Q: What about the TGI [4] of the same compound?
A: Its TGI is over 74.9 µM.

Q: And the TGI [5]?
A: Its TGI is over 29.7 µM.

Q: What about the TGI [6] of the same compound?
A: Its TGI is 25.9 µM.

Q: And the TGI [7]?
A: Its TGI is 52.6 µM.

Q: What about the TGI [8] of the same compound?
A: The TGI was 17.7 µM.

Q: What about the TGI [9] of the same compound?
A: The TGI was 6.69 µM.

Q: What about the TGI [10] of the same compound?
A: Its TGI is 16.5 µM.

Q: And the TGI [11]?
A: Its TGI is over 51.6 µM.

Q: And the TGI [12]?
A: Its TGI is 32.5 µM.

Q: And the TGI [13]?
A: Its TGI is over 21.4 µM.

Q: And the TGI [14]?
A: The TGI was 29.1 µM.

Q: What about the TGI [15] of the same compound?
A: Its TGI is 38.3 µM.

Q: What about the TGI [16] of the same compound?
A: The TGI was 17.1 µM.

Q: And the TGI [17]?
A: Its TGI is 9.82 µM.

Q: What about the TGI [18] of the same compound?
A: Its TGI is 3.19 µM.

Q: And the TGI [19]?
A: Its TGI is 14.6 µM.

Q: And the TGI [20]?
A: The TGI was over 100 µM.

Q: What about the TGI [21] of the same compound?
A: The TGI was over 26.8 µM.

Q: What about the TGI [22] of the same compound?
A: Its TGI is 33.1 µM.

Q: And the TGI [23]?
A: Its TGI is over 100 µM.

Q: And the TGI [24]?
A: The TGI was over 100 µM.

Q: And the TGI [25]?
A: The TGI was 30.6 µM.

Q: And the TGI [26]?
A: Its TGI is over 27 µM.

Q: What about the TGI [27] of the same compound?
A: Its TGI is 64.3 µM.

Q: What about the TGI [28] of the same compound?
A: Its TGI is over 29.3 µM.

Q: What about the TGI [29] of the same compound?
A: The TGI was 33.5 µM.

Q: And the TGI [30]?
A: Its TGI is 31.8 µM.

Q: What about the TGI [31] of the same compound?
A: The TGI was over 94.4 µM.

Q: What about the TGI [32] of the same compound?
A: The TGI was 12.9 µM.

Q: What about the TGI [33] of the same compound?
A: Its TGI is 9.01 µM.

Q: And the TGI [34]?
A: Its TGI is over 25.2 µM.

Q: What about the TGI [35] of the same compound?
A: The TGI was 6.81 µM.

Q: And the TGI [36]?
A: Its TGI is 9.65 µM.

Q: And the TGI [37]?
A: The TGI was over 88.3 µM.

Q: What about the TGI [38] of the same compound?
A: The TGI was 19.2 µM.

Q: And the TGI [39]?
A: The TGI was 11.6 µM.

Q: And the TGI [40]?
A: The TGI was 7.09 µM.

Q: What about the TGI [41] of the same compound?
A: The TGI was over 100 µM.

Q: What about the TGI [42] of the same compound?
A: The TGI was over 100 µM.

Q: And the TGI [43]?
A: The TGI was 7.11 µM.

Q: And the TGI [44]?
A: Its TGI is over 79.6 µM.

Q: And the TGI [45]?
A: Its TGI is over 80.9 µM.

Q: And the TGI [46]?
A: The TGI was 26.5 µM.

Q: And the TGI [47]?
A: Its TGI is 10.6 µM.

Q: What about the TGI [48] of the same compound?
A: Its TGI is over 67.9 µM.

Q: What about the TGI [49] of the same compound?
A: Its TGI is 22.7 µM.

Q: And the TGI [50]?
A: The TGI was over 100 µM.

Q: What about the TGI [51] of the same compound?
A: The TGI was 11.5 µM.

Q: What about the TGI [52] of the same compound?
A: Its TGI is 7.08 µM.

Q: What about the TGI [53] of the same compound?
A: Its TGI is 20.7 µM.

Q: What about the TGI [54] of the same compound?
A: Its TGI is over 47.9 µM.

Q: And the TGI [55]?
A: Its TGI is over 88.1 µM.
